Results from patent publication US20030053952A1, “Therapeutic tool for vascular diseases” (Yasumi UCHIDA, priority 2001, published 2003).
Entries after “also recorded” stand apart in the source; their conditions may differ.

Assays:
[1] = system: vascular progenitor cells; test: Implantation of dye-eluting stents into canine coronary artery (percentage stenosis, angioscopy, progenitor cell count); assay type: in vivo, beagle dogs; conditions: for Number of cells (250 × 250 μm^2), Adventitia / Number of cells (250 × 250 μm^2), Intima / Number of cells (250 × 250 μm^2), Media: dye-eluting stent, stented coronary segment, one month after implantation
Experimental: Beagle dogs of either sex was anesthetized with pentobarbital sodium (25 mg/kg, i.v.) and trachea was intubated for artificial respiration with air. The right side of the neck was incised longitudinally to expose right common carotid artery. An 8F sheath was introduced into the artery through which an 8F guiding catheter was introduced into the left coronary artery. After coronary angiography, a balloon catheter clinically used for PTCA was introduced to dilate anterior descending artery. Then, a balloon catheter with a dye-eluting stent on it was introduced into the dilated segment of left anterior descending artery and it was inflated at 9 atms to implant the stent. After recovery from anesthesia, the dogs were cared according the guideline of Jikei University School of Medicine. One month later, the dogs were anesthetized again and coronary angiography and angioscopy (Uchida Y: Coronary Angioscopy, Futura Publishing Co, NY, 2000) were performed to examine the changes in the stented coronary segment. […] Thereafter, the dogs were sacrificed with intracoronary pentobarbital and the heart was removed. The heart was fixed with 10% hormaldehyde solution for microscopic examination.
The coronary angiograms were used for calibration of the percentage stenosis, namely (diameter before stent implantation-minimum luminal diameter/diameter before stent implantation)×100 of the narrowest portion (minimum luminal diameter) in the stent and was compared. Student's t test was used for statistical analysis and when P<0.05, the value was considered significant.
The stented coronary segment was removed and cut into slice in 5 μm in thickness. The slices were stained with beta-actin antibody and the number of vascular progenitor cells per unit area was counted and was compared between the dye and control groups.

[2] = system: vascular progenitor cells; test: Grafting of dye-eluting artificial grafts to canine common carotid artery (percentage stenosis, progenitor cell count); assay type: in vivo, beagle dogs; conditions: dye-eluting artificial graft, 3 months after grafting
From the text: In anesthetized beagle dogs, the bilateral sides of the neck were incised to expose both right and left common carotid arteries. An 8 F sheath was introduced into the right femoral artery through which a 8 F catheter was introduced into the aortic arch for angiography of the carotid arteries. A dye-eluting artificial graft was sutured to the common carotid arteries in side to end fashion to make a shunt between the right and left common carotid arteries. Then, a segment of right carotid artery proximal to and that of left distal to anastomoses were ligatured. Thus, the blood drained from the left to the right common carotid artery. Similarly in other group, grafts coated with bionate or Sanpren without dye were sutured to the arteries as control group. The dogs were cared for 3 months according to the guideline and angiography was repeated. Percentage stenosis of the sutured portion was compared between the dye and control groups. After cardiac arrest as mentioned above, the grafts and arteries were removed and were used for microscopic examinations.

[3] = system: vascular progenitor cells; test: Local delivery of dyes by porous balloon into balloon-injured coronary artery; count of migrated vascular progenitor cells; assay type: in vivo, beagle dogs; conditions: dogs
Experimental: Adult beagle dogs of either sexes weighing from 7 to 12 kg were anesthetized with pentobarbital sodium (25-30 mg/kg, i.v.) and the trachea was intubated for artificial respiration with air. The right side of the neck was longitudinally incised to expose the right common carotid artery and an 8 F sheath was introduced, through which an 8F guiding catheter was introduced into the left coronary ostium for angiography. After angiography, a balloon catheter (2.5 mm×20 mm) was introduced through the guiding catheter into the middle to distal segment of either the anterior descending or circumflex artery. Then, the balloon was inflated at 9 atms to
dilate the segment to induced disruption of the endothelium and internal elastic lamina. The balloon catheter was replaced by a porous balloon catheter (3 mm×20 mm) with multiple pores in the balloon (Clinical Supply Co, Gifu, Japan) for local delivery of dyes. Thereafter, 0.2 ml of 5% Evans blue saline solution was injected through the porous balloon into the dilated segment at 3 atms in 6 dogs and 0.5 ml of 5% Ethidium bromide saline solution
was injected similarly in 5 dogs. […] The dilated coronary segment and its surrounding tissues were removed and sliced, vascular progenitor cells were stained with beta-smooth muscle actin antibody (DAKO EPOS, Glostrup, Denmark) and the number of vascular progenitor cells/250×250 μm^2 was counted.

[4] = Preliminary in vitro elution of dye from double-layer coated stent immersed in water; assay type: physicochemical
Experimental: a) A soft polycarbonate urethane with risin bionate (Bionate 80A, Polimertech, USA) was used. Evans blue powder was dissolved in the bionate to make 20% Evans blue solution. A commercially available coronary stent (NIR stent, 3 mm×12 mm or Palmatz-Schatz stent, 3 mm×12 mm) was immersed into the solution for 10 min to form slowly eluting inner layer. Then, the stent was dried at room temperature. Evans blue powder was dissolved in distilled water to make 20% solution. The same stent was immersed into the solution for 10 min to make rapidly eluting outer layer. The stent was dried at room temperature. Then, the stent was sterilized with ethylene oxide gas. In the preliminary experiment in vitro, Evans blue began to elute from the outer layer immediately after and ceased to elute within 60 min after immersion into water.

Row | Structure (SMILES) | Number of cells (250 × 250 μm^2), Adventitia [1] | Number of cells (250 × 250 μm^2), Intima [1] | Number of cells (250 × 250 μm^2), Media [1] | Number of cells (250 × 250 μm^2), vascular progenitor cells at the anastomosed portion of the common carotid artery [2] | Migration of circulating vascular progenitor cells into the injured coronary wall [3] | Percentage stenosis of the stented coronary segments ([1]; angiography, 4 weeks after implantation of dye-coated stents, vs stents without dye) | Angioscopic appearance of stenosis of the stented coronary segment ([1]; angioscopy, 4 weeks after stent implantation) | Time at which elution from the outer (rapidly eluting) layer ceased ([4]; stent coated from 20% aqueous dye solution, after immersion into water) [min] | Time at which elution from the inner (slowly eluting) layer began ([4]; stent coated from 20% dye in Bionate 80A, after immersion into water) [min] | Duration of elution from the inner (slowly eluting) layer ([4]; stent coated from 20% dye in Bionate 80A, immersion into water)
1 | CC[n+]1c(-c2ccccc2)c2cc(N)ccc2c2ccc(N)cc21 [Ethidium bromide] | 21.3 ± 9.9 /250 × 250 μm^2 | 8.3 ± 3.7 /250 × 250 μm^2 | 9.6 ± 5.0 /250 × 250 μm^2 | 11.1 ± 3.1 /250 × 250 μm^2 |  |  |  |  |  | 
2 | Cc1cc(-c2ccc(/N=N/c3ccc4c(S(=O)(=O)O)cc(S(=O)(=O)O)c(N)c4c3O)c(C)c2)ccc1/N=N/c1ccc2c(S(=O)(=O)O)cc(S(=O)(=O)O)c(N)c2c1O [Evans blue] | 17.0 ± 7.1 /250 × 250 μm^2 | 7.1 ± 3.2 /250 × 250 μm^2 | 8.0 ± 4.0 /250 × 250 μm^2 | 13.4 ± 4.0 /250 × 250 μm^2 | no migration of the cells was observed; also recorded: inhibit migration | significantly smaller | stenosis was mild | ≤ 60 | 60 | up to one month
